Laboratory results from patent publication US12642862B2, “Anti-CD79B antibody-drug conjugate, and preparation method therefor and pharmaceutical use thereof” (TUOJIE BIOTECH (SHANGHAI) CO., LTD., priority 2020, dated 2026).
Values joined by “and” are separate entries in the source; they are usually repeats but may differ in a detail not shown here. Identical values can stand only once. Like-named read-outs stand apart in the source and are kept apart here.

How the values were obtained:
Raji = assay type: cell-based; settings: Raji (CD79B negative-expression), 72 h, MTT
Protocol: (§1) This example was performed to evaluate the effect of different ADCs on the proliferation of DoHH2, WSU-DLCL2 and Raji cells cultured in vitro.
(§2) A certain number of cells in logarithmic growth phase were seeded into a 96-well culture plate, and drugs at different concentrations were added to the culture plate for reaction for 72 h. After the reaction was completed, an MTT working solution was added for reaction for 4 h, then blue-purple crystalline formazan was dissolved with a triplex solution.
(§3) From the inhibition rate at each concentration, the half maximal inhibitory concentration IC50 was calculated using PrismGraph 8.

[1] = test system: human follicular lymphoma DOHH-2-induced nude mouse subcutaneous xenograft tumor; assay type: in vivo, nude mice (BALB/c-nu); settings: 1 mg/kg, IV
Protocol: This example was performed to further evaluate and compare the efficacy of ADC drugs on DoHH2-induced nude mouse subcutaneous xenograft tumor.
2. Cells and mice: DOHH-2 cells were purchased from DSMZ, Germany.
Nude mice, BALB/c-nu, 4-5 weeks of age, female, were purchased from Shanghai Lingchang Biotechnology Co., Ltd, with production license number of SCXK (Shanghai) 2018-0003, and animal certification number of 20180003010222. Housing environment: SPF grade.
3. […] The mice were administrated by intravenous injection (IV) at an administration volume of 10 mL/kg.
At the end of the experiment, at the experiment endpoint, or when the mean tumor volume in the solvent group reached 1500 mm^3, the animals were sacrificed by CO2 anesthesia and dissected to give the tumors. The tumors were photographed.

DoHH2 = assay type: cell-based, human; settings: DoHH2 (CD79B high-expression), 72 h, MTT
Protocol: as §1, §2, §3

[2] = test system: human diffuse large B-cell lymphoma WSU-DLCL2-induced nude mouse subcutaneous xenograft tumor; assay type: in vivo, nude mice (BALB/c-nu); settings: 3 mg/kg, IV
Protocol: This example was performed to further evaluate and compare the efficacy of ADC drugs on WSU-DLCL2-induced nude mouse subcutaneous xenograft tumor.
Experimental steps: each nude mouse was subcutaneously inoculated with 2×10^7 WSU-DLCL2 cells, and after the tumor volume reached 100-150 mm^3, the animals were grouped according to tumor volume (D0). The mice were administrated by intravenous injection (IV) at an administration volume of 10 mL/kg. The tumor volumes and body weights were measured twice a week and the results were recorded.
Unless otherwise indicated, comparison between tumor volumes of the two groups was made by two-tailed Student's t-test, with P<0.05 defined as statistically significant difference.

WSU-DLCL2 = assay type: cell-based, human; settings: WSU-DLCL2 (CD79B low-expression), 72 h, MTT
Protocol: as §1, §2, §3

[3] = test system: DOHH-2 cells highly expressing human CD79B protein; assay type: cell-based; settings: DoHH2 cells, 20 μg/mL ADC, 37° C.
Protocol: A cell endocytosis experiment was performed with DOHH-2 cells (DSMZ, ACC 47) highly expressing human CD79B protein to assess the endocytosis ability of ADCs.
The cells were collected by low temperature centrifugation at 4° C. for 5 min at 1000 rpm during the experiment. The cells were resuspended in 10-15 mL of FACS buffer pre-cooled on ice. The FACS buffer was composed of phosphate buffered saline (PBS), pH 7.4, with 2% fetal bovine serum (FBS). Throughout the experiment, FACS buffer was pre-cooled on ice. The cells were counted and centrifuged, and added to a 96-well plate at 300,000 cells/well. After centrifugation, the supernatant was discarded, and 12.5 μg/mL Fc blocking solution (BD, Cat No.: 564220) was added at 100 μL/well. Blocking was performed at room temperature for 10 min. Then, 20 μg/mL test ADC was added to the corresponding wells, and the plate was incubated at 4° C. for 1 h away from the light. The plate was washed twice with a pre-cooled PBS buffer to remove unbound ADCs. A complete cell culture medium (RPMI 1640 medium with 10% fetal bovine serum) was added, and the plate was incubated at 37° C. with 5% CO2 for 0 h and 4 h. […] The cells were resuspended in an FACS buffer at 200 μL/well and detected using a flow cytometer (BD FACS Calibur).

human CD79B = molecular target: T1, human CD79B (Homo sapiens, UniProt P40259); assay: Biacore affinity assay of CD79B antibodies and ADCs; design: His; purchased Sino Biological 29750-H08H; settings: binding force to human CD79B protein
T1 sequence (P40259 29-159 limits assumed): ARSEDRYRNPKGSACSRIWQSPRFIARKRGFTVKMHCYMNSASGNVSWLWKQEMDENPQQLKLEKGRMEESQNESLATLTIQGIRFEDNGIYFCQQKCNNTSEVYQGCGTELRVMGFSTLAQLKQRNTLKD
Source text: Experimental instruments, materials and reagents: Biacore T200 (GE); biosensor chip CM5 (Cat. #BR-1005-30, GE); amino coupling kit (Cat. #BR-1000-50, GE); human antibody capture kit (Cat. #BR-1008-39, GE); human CD79B-His protein (Cat. #29750-H08H, Sino Biological); HBS-EP+10× buffer (Cat. #BR-1006-69, GE) diluted to 1× (pH 7.4) with D. I. Water.
Experimental procedures: human antibody capture antibodies were covalently coupled to a CM5 biochip according to the method described instructions of the human antibody capture kit for affinity capture of a certain amount of CD79B antibody.
Statistics and analysis of data: data were fitted by BIAevaluation version 4.1, GE software using a (1:1) Langmuir model to obtain affinity values.

[4] = test system: human diffuse large B-cell lymphoma WSU-DLCL2-induced nude mouse subcutaneous xenograft tumor; assay type: in vivo, nude mice (BALB/c-nu); settings: for Mean tumor volume (mm^3 ± SEM) D0 / Mean tumor volume (mm^3 ± SEM) D21 / Tumor growth inhibition (%) D21 / T/C (%) D21 / Partial regression: IV; for Mean tumor volume (mm^3 ± SEM) D0: baseline at grouping; for Mean tumor volume (mm^3 ± SEM) D21 / Tumor growth inhibition (%) D21 / T/C (%) D21 / Partial regression: single dose D0; for T/C (%) D21: control IgG1; for Partial regression: tumors (of 6) with volume on D21 less than on D0
Protocol: This example was performed to evaluate and compare the efficacy of ADC drugs on nude mouse subcutaneous xenograft tumor.
Cells and mice: human diffuse large B-cell lymphoma WSU-DLCL2 cells were purchased from American Type Culture Collection. WSU-DLCL2 cells were cultured in a 10 cm petri dish with an RPMI 1640 culture medium (Gibco) containing 10% fetal bovine serum, penicillin and streptomycin and incubated in an incubator at 37° C. with 5% CO2. Subculturing was performed 2-3 times a week, and cells were collected, counted and seeded when they were in exponential growth phase.
Nude mice, BALB/c-nu, 35 days of age, female, were purchased from Beijing Huafukang Biotechnology Co., Ltd, with production license number of SCXK (Beijing) 2019-0008, and animal certification number of 1103222011004014. Housing environment: SPF grade.
The experimental index is to study the effect of the drug on the tumor growth, and the specific index is T/C % or tumor growth inhibition TGI (%).
Tumor diameters were measured twice a week with a vernier caliper and tumor volume (V) was calculated according to the following formula: V=½×a×b^2, where a and b represent length and width, respectively.
T/C (%)=(T−T0)/(C−C0)×100, where T and C represent the tumor volume of animals at the end of the experiment in the treatment group and control group, respectively; T0 and C0 represent the tumor volume of animals at the beginning of the experiment in the treatment group and control group, respectively; where T is the tumor volume of the ADC administered and C is the tumor volume of IgG1 administered as a control group.
At the end of the experiment, at the experiment endpoint, or when the mean tumor volume in the solvent group reached 1500 mm^3, the animals were sacrificed by CO2 anesthesia and dissected to give the tumors. The tumors were photographed. Unless otherwise indicated, comparison between tumor volumes of the two groups was made by two-way ANOVA test, with P<0.05 defined as statistically significant difference.

Substance: ADC-8: SN8 conjugated with MC-VC-PAB-MMAE; positive drug ADC-8 (namely Polivy) [reference compound]
- IC50 (Raji): >10 µg/mL
- Mean tumor volume (mm^3) D0 ([1]; D0, baseline at grouping): 117.1 mm^3
- Mean tumor volume (mm^3) D20 ([1]; single dose D0, D20): 862.1 mm^3
- Tumor growth inhibition (%) D20 ([1]; single dose D0, D20): 41%
- T/C (%) D20 ([1]; single dose D0, D20, control IgG1): 59%
- Partial regression ([1]; single dose D0, tumors of 6): 0
- IC50 (DoHH2): 0.0806 µg/mL
- Mean tumor volume (mm^3) D0 ([2]; D0, baseline at grouping): 105.0 mm^3
- % T/C D21 ([2]; single dose D0, D21): 90%
- % Tumor growth inhibition D21 ([2]; single dose D0, D21): 10%
- Mean tumor volume (mm^3) D21 ([2]; single dose D0, D21): 792.6 mm^3
- Partial regression ([2]; single dose D0, tumors of 6): 0
- IC50 (WSU-DLCL2): 0.1169 µg/mL
- Endocytosis rate (4 h) [3]: 76%
- EC50 (human CD79B): 5.98 nM
- efficacy on WSU-DLCL2-induced nude mouse subcutaneous xenograft tumor (conclusion) ([4]; 3 mg/kg or 10 mg/kg, single intravenous injection): significant efficacy
- Mean tumor volume (mm^3 ± SEM) D0 ([4]; 3 mg/kg): 117.6 ± 3.0 mm^3
- Mean tumor volume (mm^3 ± SEM) D21 ([4]; 3 mg/kg): 547.2 ± 38.1 mm^3
- Tumor growth inhibition (%) D21 ([4]; 3 mg/kg): 39%
- T/C (%) D21 ([4]; 3 mg/kg): 61%
- Partial regression ([4]; 3 mg/kg): 0
- Mean tumor volume (mm^3 ± SEM) D0 ([4]; 10 mg/kg): 115.0 ± 3.7 mm^3
- Mean tumor volume (mm^3 ± SEM) D21 ([4]; 10 mg/kg): 167.8 ± 50.3 mm^3
- Tumor growth inhibition (%) D21 ([4]; 10 mg/kg): 93%
- T/C (%) D21 ([4]; 10 mg/kg): 7%
- Partial regression ([4]; 10 mg/kg): 4/6 and 4
